Measured values: patent US8129417B2, “Substituted octahydrocyclopenta[C]pyrrol-4-amines as calcium channel blockers” (Abbott Laboratories, priority 2008, dated 2012)

molecular target: human Cav2.2 (Homo sapiens, UniProt Q00975); test: Assessment of calcium channel activity using FLIPR (Ca2+ influx in IMR32 cells); type: cell-based; conditions: 60 minute pre-incubation with compound, 2 μM nifedipine, depolarized with 80 mM KCl
In short: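 IMR32 neuroblastoma cells seeded at 1-1.2×10^5 cells/well and grown 48 h at 37 °C before FLIPR Ca2+ influx read. Percent inhibition at each concentration vs no-inhibitor activity; IC50 by non-linear sigmoidal dose-response fit.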

Sequence of human Cav2.2 (Q00975 whole entry): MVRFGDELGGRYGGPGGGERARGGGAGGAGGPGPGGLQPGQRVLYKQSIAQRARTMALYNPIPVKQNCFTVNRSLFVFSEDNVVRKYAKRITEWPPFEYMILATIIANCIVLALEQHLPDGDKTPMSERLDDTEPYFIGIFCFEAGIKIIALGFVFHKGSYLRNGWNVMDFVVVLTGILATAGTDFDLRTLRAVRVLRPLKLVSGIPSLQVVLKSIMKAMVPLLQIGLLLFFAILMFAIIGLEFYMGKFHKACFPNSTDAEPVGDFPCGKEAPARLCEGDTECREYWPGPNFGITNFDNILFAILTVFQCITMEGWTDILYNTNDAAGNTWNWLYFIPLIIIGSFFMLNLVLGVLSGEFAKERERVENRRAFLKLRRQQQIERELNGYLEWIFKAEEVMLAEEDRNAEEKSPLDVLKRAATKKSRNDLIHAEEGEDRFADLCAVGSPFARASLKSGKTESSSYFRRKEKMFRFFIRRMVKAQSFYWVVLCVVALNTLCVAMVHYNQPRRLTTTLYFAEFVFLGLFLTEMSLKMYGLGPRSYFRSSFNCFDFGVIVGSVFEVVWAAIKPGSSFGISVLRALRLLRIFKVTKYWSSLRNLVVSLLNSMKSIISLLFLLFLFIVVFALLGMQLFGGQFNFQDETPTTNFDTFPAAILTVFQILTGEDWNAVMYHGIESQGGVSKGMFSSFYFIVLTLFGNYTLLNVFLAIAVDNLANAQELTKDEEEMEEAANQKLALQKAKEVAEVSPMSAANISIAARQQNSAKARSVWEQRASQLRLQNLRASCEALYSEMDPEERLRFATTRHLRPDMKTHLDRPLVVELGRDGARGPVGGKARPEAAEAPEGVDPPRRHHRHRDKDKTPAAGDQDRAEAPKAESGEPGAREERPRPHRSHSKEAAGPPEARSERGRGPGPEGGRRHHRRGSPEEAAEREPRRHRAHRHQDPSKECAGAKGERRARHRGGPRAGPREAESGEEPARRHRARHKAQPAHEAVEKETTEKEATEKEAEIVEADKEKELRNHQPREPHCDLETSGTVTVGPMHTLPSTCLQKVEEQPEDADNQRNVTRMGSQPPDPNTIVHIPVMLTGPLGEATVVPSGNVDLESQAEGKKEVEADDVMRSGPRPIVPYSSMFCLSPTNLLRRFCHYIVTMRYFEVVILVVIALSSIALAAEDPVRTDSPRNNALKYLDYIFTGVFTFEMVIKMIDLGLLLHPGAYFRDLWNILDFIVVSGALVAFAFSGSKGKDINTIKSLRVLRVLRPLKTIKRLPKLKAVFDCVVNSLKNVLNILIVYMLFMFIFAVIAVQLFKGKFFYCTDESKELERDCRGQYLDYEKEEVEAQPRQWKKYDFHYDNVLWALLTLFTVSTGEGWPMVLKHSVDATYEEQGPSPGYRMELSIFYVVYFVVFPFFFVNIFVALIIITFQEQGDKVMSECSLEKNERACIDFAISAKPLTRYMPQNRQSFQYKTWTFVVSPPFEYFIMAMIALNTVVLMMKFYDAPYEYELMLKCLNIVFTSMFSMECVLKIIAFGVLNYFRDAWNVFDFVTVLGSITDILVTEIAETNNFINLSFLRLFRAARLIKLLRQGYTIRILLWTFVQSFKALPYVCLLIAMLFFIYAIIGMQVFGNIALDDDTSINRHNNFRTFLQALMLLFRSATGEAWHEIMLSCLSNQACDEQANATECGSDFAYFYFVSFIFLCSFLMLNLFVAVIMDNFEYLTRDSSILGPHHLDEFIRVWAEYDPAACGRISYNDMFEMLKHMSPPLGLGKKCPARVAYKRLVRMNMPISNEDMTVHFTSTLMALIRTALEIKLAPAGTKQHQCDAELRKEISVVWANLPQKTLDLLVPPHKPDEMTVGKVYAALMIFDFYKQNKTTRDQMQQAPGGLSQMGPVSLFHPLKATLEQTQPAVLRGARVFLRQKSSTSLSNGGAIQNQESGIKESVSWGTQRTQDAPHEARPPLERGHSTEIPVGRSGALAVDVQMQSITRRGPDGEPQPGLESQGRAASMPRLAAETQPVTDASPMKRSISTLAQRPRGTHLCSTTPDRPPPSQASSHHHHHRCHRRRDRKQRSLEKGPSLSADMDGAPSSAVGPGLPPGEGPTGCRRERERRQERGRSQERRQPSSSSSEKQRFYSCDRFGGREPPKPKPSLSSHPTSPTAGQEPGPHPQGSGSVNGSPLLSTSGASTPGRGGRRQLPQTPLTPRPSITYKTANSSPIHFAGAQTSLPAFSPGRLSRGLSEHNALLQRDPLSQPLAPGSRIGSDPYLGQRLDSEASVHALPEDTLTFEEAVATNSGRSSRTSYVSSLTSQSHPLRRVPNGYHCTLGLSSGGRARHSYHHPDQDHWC
Sequence of human Cav2.2 (P54289 25-946 partner limits assumed): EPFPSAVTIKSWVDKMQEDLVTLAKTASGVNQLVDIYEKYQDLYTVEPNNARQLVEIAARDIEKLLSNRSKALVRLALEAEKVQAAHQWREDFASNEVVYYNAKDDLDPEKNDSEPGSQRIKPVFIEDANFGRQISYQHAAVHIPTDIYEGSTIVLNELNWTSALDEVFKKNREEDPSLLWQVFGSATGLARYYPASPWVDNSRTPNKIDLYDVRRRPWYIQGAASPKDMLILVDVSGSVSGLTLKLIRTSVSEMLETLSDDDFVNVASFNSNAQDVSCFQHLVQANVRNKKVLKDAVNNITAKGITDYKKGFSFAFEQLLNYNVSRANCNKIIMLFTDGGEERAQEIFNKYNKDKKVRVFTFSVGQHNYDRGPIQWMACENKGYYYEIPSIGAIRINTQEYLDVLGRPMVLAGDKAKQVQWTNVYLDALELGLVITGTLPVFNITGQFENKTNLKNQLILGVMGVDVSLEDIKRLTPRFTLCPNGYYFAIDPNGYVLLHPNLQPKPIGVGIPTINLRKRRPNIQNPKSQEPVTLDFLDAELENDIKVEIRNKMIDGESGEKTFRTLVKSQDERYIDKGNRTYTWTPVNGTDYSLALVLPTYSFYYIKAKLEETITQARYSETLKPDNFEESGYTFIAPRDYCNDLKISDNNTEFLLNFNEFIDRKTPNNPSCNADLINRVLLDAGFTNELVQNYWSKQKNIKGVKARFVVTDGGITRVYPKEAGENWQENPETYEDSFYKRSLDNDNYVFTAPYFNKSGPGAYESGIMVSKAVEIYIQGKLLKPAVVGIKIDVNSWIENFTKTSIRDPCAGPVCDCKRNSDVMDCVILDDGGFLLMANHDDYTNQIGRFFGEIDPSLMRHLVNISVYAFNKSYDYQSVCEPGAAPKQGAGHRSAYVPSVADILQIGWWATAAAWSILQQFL
Sequence of human Cav2.2 (P54289 947-1103 partner limits assumed): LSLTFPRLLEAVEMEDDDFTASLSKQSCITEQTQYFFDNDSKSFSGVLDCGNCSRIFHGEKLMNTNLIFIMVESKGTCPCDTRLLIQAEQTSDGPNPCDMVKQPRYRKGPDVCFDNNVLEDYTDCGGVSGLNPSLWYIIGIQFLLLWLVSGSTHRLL
Sequence of human Cav2.2 (P54284 whole entry partner): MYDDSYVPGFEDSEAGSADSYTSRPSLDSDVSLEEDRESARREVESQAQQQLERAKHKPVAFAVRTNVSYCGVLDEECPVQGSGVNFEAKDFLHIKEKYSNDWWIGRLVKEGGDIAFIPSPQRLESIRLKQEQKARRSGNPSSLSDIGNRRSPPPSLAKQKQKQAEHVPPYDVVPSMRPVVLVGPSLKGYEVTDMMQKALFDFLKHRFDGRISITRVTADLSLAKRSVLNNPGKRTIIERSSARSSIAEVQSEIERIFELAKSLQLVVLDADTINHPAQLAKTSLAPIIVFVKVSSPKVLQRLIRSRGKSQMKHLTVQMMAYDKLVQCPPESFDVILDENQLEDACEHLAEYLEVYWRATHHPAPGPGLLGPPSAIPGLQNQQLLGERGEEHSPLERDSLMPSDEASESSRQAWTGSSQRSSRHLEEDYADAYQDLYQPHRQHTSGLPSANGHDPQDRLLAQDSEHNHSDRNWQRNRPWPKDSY

Row | IC50 [nM] | Compound
1 | 3910 | O=S(=O)(c1ccc(C(F)(F)F)cc1)N1C[C@H]2CC[C@H](NCC3CC3)[C@H]2C1 [Example 292, (3aR,4S,6aS)—N-(cyclopropylmethyl)-2-{[4-(trifluoromethyl)phenyl]sulfonyl}octahydrocyclopenta[c]pyrrol-4-amine]
2 | 4820 | CCN[C@H]1CC[C@@H]2CN(S(=O)(=O)c3ccc(C(F)(F)F)cc3Cl)C[C@@H]21 [Example 293, (3aR,4S,6aS)-2-{[2-chloro-4-(trifluoromethyl)phenyl]sulfonyl}-N-ethyloctahydrocyclopenta[c]pyrrol-4-amine]
3 | 2140 | CCN(C(=O)[C@H](CC(C)(C)C)N(C)C(=O)OC(C)(C)C)[C@H]1CC[C@@H]2CN(S(=O)(=O)c3ccc(C(F)(F)F)cc3)C[C@@H]21 [Example 296, tert-butyl(S)-1-(ethyl((3aR,4S,6aS)-2-(4-(trifluoromethyl)phenylsulfonyl)octahydrocyclopenta[c]pyrrol-4-yl)amino)-4,4-dimethyl-1-oxopentan-2-yl(methyl)carbamate]
4 | 7880 | CCCN(C(=O)[C@H](CC(C)(C)C)N(C)C(=O)OC(C)(C)C)[C@H]1CC[C@@H]2CN(S(=O)(=O)c3ccc(C(F)(F)F)cc3)C[C@@H]21 [Example 297, tert-butyl(S)-4,4-dimethyl-1-oxo-1-(propyl((3aR,4S,6aS)-2-(4-(trifluoromethyl)phenylsulfonyl)octahydrocyclopenta[c]pyrrol-4-yl)amino)pentan-2-yl(methyl)carbamate]
5 | 3680 | O=[N+]([O-])c1ccccc1S(=O)(=O)N[C@H]1CC[C@@H]2CN(S(=O)(=O)c3ccc(C(F)(F)F)cc3)C[C@@H]21 [Example 299, 2-nitro-N-((3aR,4S,6aS)-2-{[4-(trifluoromethyl)phenyl]sulfonyl}octahydrocyclopenta[c]pyrrol-4-yl)benzenesulfonamide]
6 | 1540 | CN([C@H]1CC[C@@H]2CN(S(=O)(=O)c3ccc(C(F)(F)F)cc3)C[C@@H]21)S(=O)(=O)c1ccccc1[N+](=O)[O-] [Example 300, N-methyl-2-nitro-N-((3aR,4S,6aS)-2-{[4-(trifluoromethyl)phenyl]sulfonyl}octahydrocyclopenta[c]pyrrol-4-yl)benzenesulfonamide]
7 | 1140 | CN(C(=O)OC(C)(C)C)[C@@H](CC(C)(C)C)C(=O)N(C)[C@H]1CC[C@@H]2CN(S(=O)(=O)c3ccc(C(F)(F)F)cc3)C[C@@H]21 [Example 302, tert-butyl(S)-4,4-dimethyl-1-(methyl((3aR,4S,6aS)-2-(4-(trifluoromethyl)phenylsulfonyl)octahydrocyclopenta[c]pyrrol-4-yl)amino)-1-oxopentan-2-yl(methyl)carbamate]
8 | 3110 | CC(C)C[C@@H](C(=O)N[C@@H]1CC[C@H]2CN(Cc3cccc(C(F)(F)F)c3)C[C@H]21)N1CCCS1(=O)=O [Example 303, (2S)-2-(1,1-dioxidoisothiazolidin-2-yl)-4-methyl-N-{(3aS,4R,6aR)-2-[3-(trifluoromethyl)benzyl]octahydrocyclopenta[c]pyrrol-4-yl}pentanamide]
9 | 3780 | CC(C)C(C(=O)N[C@@H]1CC[C@H]2CN(Cc3cccc(C(F)(F)F)c3)C[C@H]21)C(C)C [Example 304, 2-isopropyl-3-methyl-N-{(3aS,4R,6aR)-2-[3-(trifluoromethyl)benzyl]octahydrocyclopenta[c]pyrrol-4-yl}butanamide]
10 | 3510 | CC(C)C(C(=O)N[C@H]1CC[C@@H]2CN(Cc3cccc(C(F)(F)F)c3)C[C@@H]21)C(C)C [Example 305, 2-isopropyl-3-methyl-N-{(3aR,4S,6aS)-2-[3-(trifluoromethyl)benzyl]octahydrocyclopenta[c]pyrrol-4-yl}butanamide]
11 | 500 | CC(C)C[C@H](NC(=O)OC(C)(C)C)C(=O)N[C@H]1CC[C@@H]2CN(Cc3cccc(C(F)(F)F)c3)C[C@@H]21 [Example 306, tert-butyl(S)-4-methyl-1-oxo-1-((3aR,4S,6aS)-2-(3-(trifluoromethyl)benzyl)octahydrocyclopenta[c]pyrrol-4-ylamino)pentan-2-ylcarbamate]
12 | 1540 | CC(C)C[C@@H](C(=O)N[C@H]1CC[C@@H]2CN(Cc3cccc(C(F)(F)F)c3)C[C@@H]21)N(C)C(=O)OC(C)(C)C [Example 307, tert-butyl methyl((S)-4-methyl-1-oxo-1-((3aR,4S,6aS)-2-(3-(trifluoromethyl)benzyl)octahydrocyclopenta[c]pyrrol-4-ylamino)pentan-2-yl)carbamate]
13 | 1740 | CC(C)C[C@@H](C(=O)N[C@H]1CC[C@@H]2CN(Cc3ccc(F)cc3)C[C@@H]21)N(C)C(=O)OC(C)(C)C [Example 309, tert-butyl(S)-1-((3aR,4S,6aS)-2-(4-fluorobenzyl)octahydrocyclopenta[c]pyrrol-4-ylamino)-4-methyl-1-oxopentan-2-yl(methyl)carbamate]
14 | 680 | CCN(C(=O)OC(C)(C)C)[C@@H](CC(C)C)C(=O)N[C@H]1CC[C@@H]2CN(Cc3cccc(C(F)(F)F)c3)C[C@@H]21 [Example 310, tert-butyl ethyl((S)-4-methyl-1-oxo-1-((3aR,4S,6aS)-2-(3-(trifluoromethyl)benzyl)octahydrocyclopenta[c]pyrrol-4-ylamino)pentan-2-yl)carbamate]
15 | 2100 | CCC[C@@H](C(=O)N[C@H]1CC[C@@H]2CN(Cc3cccc(C(F)(F)F)c3)C[C@@H]21)N(C)C(=O)OC(C)(C)C [Example 313, tert-butyl methyl((S)-1-oxo-1-((3aR,4S,6aS)-2-(3-(trifluoromethyl)benzyl)octahydrocyclopenta[c]pyrrol-4-ylamino)pentan-2-yl)carbamate]
16 | 2150 | CCC[C@@H](C(=O)N[C@H]1CC[C@@H]2CN(Cc3ccc(C(F)(F)F)cc3)C[C@@H]21)N(C)C(=O)OC(C)(C)C [Example 314, tert-butyl methyl((S)-1-oxo-1-((3aR,4S,6aS)-2-(4-(trifluoromethyl)benzyl)octahydrocyclopenta[c]pyrrol-4-ylamino)pentan-2-yl)carbamate]
17 | 900 | CCC[C@@H](C(=O)N[C@@H]1CC[C@H]2CN(Cc3ccc(C(F)(F)F)cc3)C[C@H]21)N(C)C(=O)OC(C)(C)C [Example 317, tert-butyl methyl((S)-1-oxo-1-((3aS,4R,6aR)-2-(4-(trifluoromethyl)benzyl)octahydrocyclopenta[c]pyrrol-4-ylamino)pentan-2-yl)carbamate]
18 | 1210 | CC(C)C[C@@H](C(=O)N[C@@H]1CC[C@H]2CN(S(=O)(=O)c3cccc(C(F)(F)F)c3)C[C@H]21)N1CCOCC1 [Example 319, (2S)-4-methyl-2-morpholin-4-yl-N-((3aS,4R,6aR)-2-{[3-(trifluoromethyl)phenyl]sulfonyl}octahydrocyclopenta[c]pyrrol-4-yl)pentanamide]
19 | 700 | CC(C)C[C@@H](C(=O)N[C@@H]1CC[C@H]2CN(S(=O)(=O)c3cccc(C(F)(F)F)c3)C[C@H]21)N1CCCC1 [Example 320, (2S)-4-methyl-2-pyrrolidin-1-yl-N-((3aS,4R,6aR)-2-{[3-(trifluoromethyl)phenyl]sulfonyl}octahydrocyclopenta[c]pyrrol-4-yl)pentanamide]
20 | 440 | CC(C)C[C@@H](C(=O)N[C@@H]1CC[C@H]2CN(S(=O)(=O)c3cccc(C(F)(F)F)c3)C[C@H]21)N1CCCCC1 [Example 321, (2S)-4-methyl-2-piperidin-1-yl-N-((3aS,4R,6aR)-2-{[3-(trifluoromethyl)phenyl]sulfonyl}octahydrocyclopenta[c]pyrrol-4-yl)pentanamide]
21 | 700 | CC(C)C[C@@H](C(=O)N[C@H]1CC[C@@H]2CN(S(=O)(=O)c3cccc(C(F)(F)F)c3)C[C@@H]21)N(C)C(=O)OC(C)(C)C [Example 322, tert-butyl methyl((S)-4-methyl-1-oxo-1-((3aR,4S,6aS)-2-(3-(trifluoromethyl)phenylsulfonyl)octahydrocyclopenta[c]pyrrol-4-ylamino)pentan-2-yl)carbamate]
22 | 200 | CCN(C(=O)OC(C)(C)C)[C@@H](CC(C)C)C(=O)N[C@H]1CC[C@@H]2CN(S(=O)(=O)c3cccc(C(F)(F)F)c3)C[C@@H]21 [Example 323, tert-butyl ethyl((S)-4-methyl-1-oxo-1-((3aR,4S,6aS)-2-(3-(trifluoromethyl)phenylsulfonyl)octahydrocyclopenta[c]pyrrol-4-ylamino)pentan-2-yl)carbamate]
23 | 690 | CC(C)C[C@@H](C(=O)N[C@@H]1CC[C@H]2CN(S(=O)(=O)c3ccc(C(F)(F)F)cc3)C[C@H]21)N(C)C(=O)OC(C)(C)C [Example 324, tert-butyl methyl((S)-4-methyl-1-oxo-1-((3aS,4R,6aR)-2-(4-(trifluoromethyl)phenylsulfonyl)octahydrocyclopenta[c]pyrrol-4-ylamino)pentan-2-yl)carbamate]
24 | 250 | CC(C)C[C@@H](C(=O)N[C@@H]1CC[C@H]2CN(S(=O)(=O)c3cccc(C(F)(F)F)c3)C[C@H]21)N(C)C(=O)OC(C)(C)C [Example 325, tert-butyl methyl((S)-4-methyl-1-oxo-1-((3aS,4R,6aR)-2-(3-(trifluoromethyl)phenylsulfonyl)octahydrocyclopenta[c]pyrrol-4-ylamino)pentan-2-yl)carbamate]
25 | 1460 | CC(C)C[C@@H](C(=O)N[C@@H]1CC[C@H]2CN(S(=O)(=O)c3ccc(F)cc3)C[C@H]21)N(C)C(=O)OC(C)(C)C [Example 326, tert-butyl(S)-1-((3aS,4R,6aR)-2-(4-fluorophenylsulfonyl)octahydrocyclopenta[c]pyrrol-4-ylamino)-4-methyl-1-oxopentan-2-yl(methyl)carbamate]
26 | 1830 | CC(C)C[C@@H](C(=O)N[C@@H]1CC[C@H]2CN(S(=O)(=O)c3ccc(F)c(C(F)(F)F)c3)C[C@H]21)N(C)C(=O)OC(C)(C)C [Example 327, tert-butyl(S)-1-((3aS,4R,6aR)-2-(4-fluoro-3-(trifluoromethyl)phenylsulfonyl)octahydrocyclopenta[c]pyrrol-4-ylamino)-4-methyl-1-oxopentan-2-yl(methyl)carbamate]
